Test results as given in ChEMBL document CHEMBL1201862, “PubChem BioAssay data set” (2004).
Activity calls are given as the source filed them.

Assays:
Cytochrome P450 2C19 = Cytochrome P450 2C19 (Homo sapiens, UniProt P33261); assay: Cytochrome panel assay with activity outcomes. Panel member name: p450-cyp2c19 Compounds with AC50 equal or less than 10 uM are considered active; type: functional
Streptokinase A = molecular target: T1, Streptokinase A (Streptococcus pyogenes serotype M1, UniProt P10520); assay: viability-normalized secreted streptokinase activity reduction – plasminogen activation absorbance, OD405, dose response (AID 1914); type: functional, Streptococcus pyogenes M1 GAS;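 further: secreted streptokinase activity via plasminogen activation per viability signal from cell pellet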
T1 sequence (P10520 whole entry): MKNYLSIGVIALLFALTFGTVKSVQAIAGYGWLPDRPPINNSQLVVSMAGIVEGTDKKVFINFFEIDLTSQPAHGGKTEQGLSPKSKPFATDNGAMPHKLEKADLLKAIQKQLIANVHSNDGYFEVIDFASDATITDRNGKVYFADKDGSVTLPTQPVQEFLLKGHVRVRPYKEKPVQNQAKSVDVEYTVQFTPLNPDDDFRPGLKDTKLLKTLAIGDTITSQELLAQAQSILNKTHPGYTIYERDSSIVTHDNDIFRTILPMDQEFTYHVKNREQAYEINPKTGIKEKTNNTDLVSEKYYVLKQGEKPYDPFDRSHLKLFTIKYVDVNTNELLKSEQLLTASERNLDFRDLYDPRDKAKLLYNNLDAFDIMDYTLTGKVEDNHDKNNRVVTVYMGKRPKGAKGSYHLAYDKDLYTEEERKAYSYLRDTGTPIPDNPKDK

[1] = Trypanosoma cruzi growth suppression in host cells – NIH3T3 host cells, beta-gal luminescence, confirmation (AID 2044); type: functional, cell-based;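 further: intracellular parasites grown in NIH/3T3 mouse fibroblasts as host cells; luminescent beta-galactosidase reporter signal from transgenic T. cruzi replicating inside host cells; inhibitors lower the luminescence signal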
[2] = NIH3T3 cell viability loss – ATP luminescence, mouse fibroblasts, counter-screen, dose response (AID 2010); type: functional, cell-based;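 further: cells exposed to compound for about 90 hours before reading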
Cytochrome P450 2C9 = Cytochrome P450 2C9 (Homo sapiens, UniProt P11712)
Chain of Cytochrome P450 2C9 (P11712 whole entry): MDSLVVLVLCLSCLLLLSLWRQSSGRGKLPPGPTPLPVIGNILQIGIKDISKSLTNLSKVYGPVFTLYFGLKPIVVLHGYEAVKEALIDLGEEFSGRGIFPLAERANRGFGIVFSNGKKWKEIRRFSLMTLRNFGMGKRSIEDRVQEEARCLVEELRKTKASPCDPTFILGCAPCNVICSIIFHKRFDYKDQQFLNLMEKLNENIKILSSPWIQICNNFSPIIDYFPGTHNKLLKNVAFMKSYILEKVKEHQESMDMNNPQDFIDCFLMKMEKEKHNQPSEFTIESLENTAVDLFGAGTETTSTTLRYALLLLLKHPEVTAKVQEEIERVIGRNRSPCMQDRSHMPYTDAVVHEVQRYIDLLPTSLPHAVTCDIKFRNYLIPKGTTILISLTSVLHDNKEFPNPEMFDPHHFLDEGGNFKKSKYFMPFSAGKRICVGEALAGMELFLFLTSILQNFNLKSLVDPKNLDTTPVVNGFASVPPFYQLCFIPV

H4 = assay: Luminescence Cell-Based Dose Response HTS to Identify Activators of 5'UTR Stem-Loop Driven Prion Protein mRNA Translation in H4 Neuroglioblastoma Cells. [Related pubchem assays: 1829 (Project Summary), 1814 (Primary HTS)]; type: functional; details: Homo sapiens
[3] = Luminescence Cell-Based Dose Response HTS to Identify Activators of Luciferase Translation or Activity in H4 […] Cells. [Related pubchem assays: 1829 (Project Summary), 1814 (Primary HTS)]; type: functional
[4] = tested on: Streptococcus sp. 'group A'; assay: Streptococcus pyogenes SK(-)GAS viability under kanamycin – luminescence, BacTiterGlo, confirmation, counter-screen for streptokinase expression inhibitor project, dose response (AID 1900); type: functional, organism-based
Streptococcus = assay: GAS UMAA2166 growth inhibition – luminescence, BacTiterGlo, counter-screen for streptokinase expression inhibitor project, dose response (AID 1915); type: functional, organism-based;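 further: potency for reduction of bacterial viability or growth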
[5] = molecular target: T2, Corticotropin-releasing factor receptor 2/Corticotropin-releasing factor-binding protein (Homo sapiens, UniProt P24387+Q13324); assay: activators of CRF receptor 2 with binding protein – uHTS hits, confirmation (AID 602473); type: functional; details: read-out: EC50_Mean
T2 sequence (Q13324 whole entry): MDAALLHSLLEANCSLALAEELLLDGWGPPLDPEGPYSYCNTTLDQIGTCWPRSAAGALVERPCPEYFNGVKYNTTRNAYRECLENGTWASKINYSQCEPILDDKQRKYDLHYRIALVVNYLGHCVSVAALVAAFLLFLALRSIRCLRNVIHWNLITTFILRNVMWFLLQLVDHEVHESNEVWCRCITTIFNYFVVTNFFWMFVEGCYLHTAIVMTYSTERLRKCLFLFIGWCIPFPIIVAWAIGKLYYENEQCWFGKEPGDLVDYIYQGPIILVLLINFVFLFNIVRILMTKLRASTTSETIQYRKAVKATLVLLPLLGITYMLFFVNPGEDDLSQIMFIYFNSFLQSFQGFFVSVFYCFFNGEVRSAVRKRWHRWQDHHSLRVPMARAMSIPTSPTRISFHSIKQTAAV
T2 sequence (P24387 whole entry): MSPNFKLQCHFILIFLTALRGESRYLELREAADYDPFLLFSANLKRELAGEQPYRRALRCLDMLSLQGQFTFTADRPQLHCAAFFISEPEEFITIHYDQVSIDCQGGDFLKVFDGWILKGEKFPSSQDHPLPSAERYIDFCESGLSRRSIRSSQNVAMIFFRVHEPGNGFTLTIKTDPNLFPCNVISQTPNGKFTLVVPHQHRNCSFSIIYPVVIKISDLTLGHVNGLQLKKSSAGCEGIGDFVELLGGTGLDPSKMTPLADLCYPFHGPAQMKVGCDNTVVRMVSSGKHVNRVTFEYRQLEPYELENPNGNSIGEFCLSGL

Chain of Cytochrome P450 2C19 (P33261 whole entry): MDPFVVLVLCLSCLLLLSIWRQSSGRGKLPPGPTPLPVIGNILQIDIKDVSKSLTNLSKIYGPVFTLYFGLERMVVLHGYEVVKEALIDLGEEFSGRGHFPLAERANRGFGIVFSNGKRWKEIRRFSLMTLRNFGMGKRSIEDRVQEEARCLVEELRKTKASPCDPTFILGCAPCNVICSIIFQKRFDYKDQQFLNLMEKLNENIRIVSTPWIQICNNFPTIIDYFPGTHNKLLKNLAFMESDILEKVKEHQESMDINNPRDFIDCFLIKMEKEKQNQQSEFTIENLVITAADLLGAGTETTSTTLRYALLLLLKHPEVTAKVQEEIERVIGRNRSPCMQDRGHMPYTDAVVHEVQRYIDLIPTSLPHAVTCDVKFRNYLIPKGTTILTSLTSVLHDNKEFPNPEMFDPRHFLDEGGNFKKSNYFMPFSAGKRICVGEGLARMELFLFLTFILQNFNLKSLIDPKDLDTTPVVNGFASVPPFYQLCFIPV

| SMILES | EC50 (Streptokinase A) | EC50 [4] | EC50 (Streptococcus) | further results |
| --- | --- | --- | --- | --- |
| Cc1c(Br)c([N+](=O)[O-])nn1CC(=O)NCc1ccccn1 | – | – | – | AC50 (Cytochrome P450 2C19): inconclusive |
| Cc1ccccc1-c1cc(-c2ccccc2O)n[nH]1 | 66.2 µM (inconclusive) | – | – | – |
| CCOc1ccc(NC(=O)CC2C(=O)N(C)C(=S)N2CCCc2ccccc2)cc1 (stereo not drawn) | – | – | – | EC50 [1]: 2.4 µM (active); EC50 [2]: > 60 µM (not active) |
| CCc1c(O)n(-c2ccccc2)c(SCC(=O)NC(C)(C)C)nc1=O | – | – | – | AC50 (Cytochrome P450 2C9): 20 µM (inconclusive); AC50 (Cytochrome P450 2C19; read-out: AC50): 35.5 µM (inconclusive) |
| CCC(CC)C(=O)Nc1cccc(C(=O)Nc2ccc(OC)cc2[N+](=O)[O-])c1 | – | – | – | AC50 (Cytochrome P450 2C9): 0.891 µM (inconclusive); AC50 (Cytochrome P450 2C19; read-out: AC50): 0.316 µM (inconclusive) |
| O=C(N/N=C/c1ccc(OCc2ccccc2)cc1)c1ccncc1 | – | – | – | EC50 (H4): 19.3 µM (active); EC50 [3]: 17.7 µM (active) |
| CCN(CC)c1ccc(NC(=O)c2c(C)noc2C)cc1 | > 150 µM (not active) | > 150 µM (not active) | > 150 µM (not active) | – |
| Cc1ccc(C)c(NC(=S)N2CCC(c3nc4ccccc4s3)CC2)c1 | – | – | – | EC50 [1]: 3.67 µM (active); EC50 [2]: > 30 µM (not active) |
| CN(C)c1ccc(/C=C/c2c([N+](=O)[O-])c(=O)n(C)c(=O)n2C)cc1 | > 150 µM (not active) | 5.75 µM (active) | 18.3 µM (active) | – |
| Cc1oc(-c2ccc(F)cc2)nc1CN(Cc1ccccn1)CC1CCCO1 (stereo not drawn) | > 150 µM (not active) | 30.4 µM (active) | > 150 µM (not active) | – |
| O=C(c1cc(-c2ccccc2)nc2ccccc12)N1CCN(c2ccccc2O)CC1 | 61.5 µM (active) | 23.8 µM (active) | 61.7 µM (active) | – |
| COc1ccccc1CN1CC(C(=O)NCc2ncccc2C)CCC1=O (stereo not drawn) | > 150 µM (not active) | > 150 µM (not active) | > 150 µM (not active) | – |
| CCCc1nnc(NC(=O)Cn2cnc3ccccc3c2=O)s1 | – | – | – | AC50 (Cytochrome P450 2C19; read-out: AC50): 25.1 µM (inconclusive) |
| O=C(NCCc1ccccc1)C1=COCCO1 | – | – | – | EC50 (H4): > 120 µM (not active); EC50 [3]: 0.762 µM (active) |
| O=C(Nc1nnc(C2=COCCO2)o1)c1cccc(F)c1 | > 150 µM (not active) | 1.83 µM (active) | 19.6 µM (active) | – |
| CCC[C@@H]1C[C@@]1(CCC)[C@@H](NP(=O)(c1ccccc1)c1ccccc1)c1ccc(C(=O)OC)cc1 | > 150 µM (not active) | 5.5 µM (active) | 6.87 µM (active) | – |
| CCOC(=O)C1CN(S(=O)(=O)c2cccc(C(F)(F)F)c2)c2cc(CC(=O)OC)ccc2O1 (stereo not drawn) | – | – | – | AC50 (Cytochrome P450 2C19; read-out: AC50): 0.282 µM (inconclusive) |
| Cc1ccc(C(=O)NC(=S)NNC(=O)COc2ccccc2C)cc1 | – | 0.138 µM (active) | 0.555 µM (active) | EC50 [5]: 10.6 µM (active) |
| Cc1ccc(-n2ncc(Cl)c2C(=O)NC2CC2)cc1 | – | – | – | EC50 [3]: 0.26 µM (active) |
| CO[C@@H]1COC(=O)[C@H]2CCCN2C(=O)C/C=C\[C@@H](C)[C@H](OC)COC(=O)[C@H]2CCCN2C(=O)C/C=C\[C@H]1C | – | – | – | AC50 (Cytochrome P450 2C19): inconclusive |
| CN1/C(=C\C=C(/C#N)C(=O)Nc2ccc(Cl)cc2)C(C)(C)c2ccccc21 | – | – | – | EC50 [5]: 6.43 µM (active) |
| C/N=C(N)/N=C(\N)Nc1cc2ccccc2c2ccccc12 | – | – | – | AC50 (Cytochrome P450 2C19; read-out: AC50): 3.98 µM (inconclusive) |
| Cc1cc(C)nc(SCc2nnc(SCC(N)=O)n2Cc2ccco2)n1 | – | – | – | AC50 (Cytochrome P450 2C9): 3.55 µM (inconclusive) |
| COc1cc(CN2CCCC(C(=O)c3ccccc3SC)C2)cc(OC)c1 (stereo not drawn) | – | – | – | EC50 [1]: 0.557 µM (active); EC50 [2]: > 60 µM (not active) |
| CCn1ccnc1CN1CCc2c([nH]c3ccccc23)C1C1CCCCC1 (stereo not drawn) | 42.1 µM (active) | 5.53 µM (active) | 29.3 µM (active) | – |

| SMILES | EC50 (Streptokinase A) | EC50 [4] | EC50 (Streptococcus) | further results |
| --- | --- | --- | --- | --- |
| COC(=O)[C@@]1(Cc2ccc(OC)cc2)[C@H]2c3cc(C(=O)N4CCCC4)n(Cc4cc(C)n(C)n4)c3C[C@H]2CN1C(=O)c1ccccc1 | – | – | – | AC50 (Cytochrome P450 2C9): 12.6 µM (inconclusive) |
| COc1ccc(N2C(=O)/C(=C\NNS(=O)(=O)c3cc(C)ccc3C)c3ccccc3C2=O)cc1OC | – | – | – | EC50 [5]: 15.5 µM (active) |
| CSc1ccc(/C=N/n2c(C)cc(C)cc2=O)cc1 | – | – | – | EC50 (H4): 7.91 µM (active); EC50 [3]: 18.2 µM (active) |
| COc1ccc(C(C(=O)NC(C)(C)C)N(C(=O)CNC(=O)c2cccs2)c2ccc(C)cc2)cc1OC (stereo not drawn) | – | – | – | AC50 (Cytochrome P450 2C19; read-out: AC50): 17.8 µM (inconclusive) |
| Cc1ccc(Cn2c(O)c(N=NC(S)=Nc3ccccc3F)c3ccccc32)cc1 | – | – | – | EC50 [1]: 0.886 µM (active); EC50 [2]: 17.4 µM (active) |
| Nc1ccc(-c2nc3nc(N)nc(N)c3nc2-c2ccc(N)cc2)cc1 | > 150 µM (not active) | 2.94 µM (active) | > 150 µM (not active) | – |
| Cc1cccc(OCCCCc2c(C)n[nH]c2C)c1C | – | 6.66 µM (active) | 17 µM (active) | – |
| N#Cc1c(N2CCOCC2)nc(N2CCCCC2)c2c1CCN(C1CCCCC1)C2 | – | – | – | EC50 [1]: 0.251 µM (active); EC50 [2]: > 30 µM (not active) |
| O=C(NCc1ccccc1)C(=O)Nc1nc(-c2ccccc2)cs1 | > 150 µM (not active) | 5.38 µM (active) | 14.1 µM (active) | – |
| Cc1ccc(NC(=O)CCC(=O)NNS(=O)(=O)c2ccccc2)c(C)c1 | – | – | – | AC50 (Cytochrome P450 2C19; read-out: AC50): 17.8 µM (inconclusive) |
| Cc1[nH]c(-c2ccc(F)cc2)cc1C(=O)N1CCN(c2cccc(Cl)c2)CC1 | > 150 µM (not active) | 3.8 µM (active) | 11.8 µM (active) | – |
| CN(C)CCCN(C(=O)CCc1ccccc1)c1nc2c(F)cccc2s1 | – | – | – | EC50 [1]: 0.819 µM (active); EC50 [2]: > 30 µM (not active) |
| Cc1cccc(OCC(=O)Nc2ccc(C(=O)Nc3ccccc3C(=O)O)cc2)c1C | > 150 µM (not active) | 6.06 µM (active) | > 150 µM (not active) | – |
| Cc1ccc(NC(=O)CN2C(=O)N/C(=C/c3ccc(C)o3)C2=O)cc1 | – | – | – | AC50 (Cytochrome P450 2C9): 14.1 µM (inconclusive) |
| Cc1ccccc1-c1cc(-c2ccccc2O)[nH]n1 | – | 9.25 µM (active) | > 150 µM (not active) | – |
| CC(C)Cn1c(=O)c(C(=O)N/N=C/c2cccc(F)c2)c(O)c2ccccc21 | – | 1.28 µM (active) | 3.69 µM (active) | – |
| CCN(CC)CCN(C(=O)CCS(=O)(=O)c1ccccc1)c1nc2cc3c(cc2s1)OCO3 | – | – | – | EC50 [1]: 0.794 µM (active); EC50 [2]: > 60 µM (not active) |
| CCN(CC)c1ccc(C2Nc3cccc4cccc(c34)N2)cc1 | – | – | – | EC50 (H4): 27.2 µM (active); EC50 [3]: 16.8 µM (active) |
| CCOC(=O)c1cn2nc(Oc3ccccc3)ccc2n1 | – | – | – | EC50 (H4): > 120 µM (not active); EC50 [3]: 7.96 µM (active) |
| O=C(O)CCCCCCCCc1cn(Cc2ccc(C(=O)c3ccccc3)cc2)nn1 | – | – | – | EC50 [1]: > 60 µM (not active); EC50 [2]: 6.22 µM (active) |
| C[C@H](N)C(=O)OC(C)(C)Cc1ccc(Cl)cc1 [(S)-ALAPROCLATE] | – | – | – | AC50 (Cytochrome P450 2C9): 39.8 µM (inconclusive) |
| Nc1nc(Nc2ccc(Cl)cc2)nc(NCc2ccco2)c1[N+](=O)[O-] | > 150 µM (not active) | 7.12 µM (active) | 26.4 µM (inconclusive) | – |
| CCCC(=O)Nc1sc2c(c1C#N)CCCCC2 | – | – | – | EC50 (H4): > 120 µM (not active); EC50 [3]: 0.102 µM (active) |
| COc1ccc(CCN2CC(C(=O)NCCc3ccccn3)CCC2=O)cc1 (stereo not drawn) | > 150 µM (not active) | > 150 µM (not active) | > 150 µM (not active) | – |
